Results as given in publication PMC3515623, “WIKI4, a Novel Inhibitor of Tankyrase and Wnt/ß-Catenin Signaling” (PLoS ONE, 2012).
pIC50: −log10 of the molar value.

Target: T1, TNKS2 (Homo sapiens, UniProt Q9H2K2)
T1 construct: Recombinant GST-TNKS2
T1 sequence (Q9H2K2 1-1166): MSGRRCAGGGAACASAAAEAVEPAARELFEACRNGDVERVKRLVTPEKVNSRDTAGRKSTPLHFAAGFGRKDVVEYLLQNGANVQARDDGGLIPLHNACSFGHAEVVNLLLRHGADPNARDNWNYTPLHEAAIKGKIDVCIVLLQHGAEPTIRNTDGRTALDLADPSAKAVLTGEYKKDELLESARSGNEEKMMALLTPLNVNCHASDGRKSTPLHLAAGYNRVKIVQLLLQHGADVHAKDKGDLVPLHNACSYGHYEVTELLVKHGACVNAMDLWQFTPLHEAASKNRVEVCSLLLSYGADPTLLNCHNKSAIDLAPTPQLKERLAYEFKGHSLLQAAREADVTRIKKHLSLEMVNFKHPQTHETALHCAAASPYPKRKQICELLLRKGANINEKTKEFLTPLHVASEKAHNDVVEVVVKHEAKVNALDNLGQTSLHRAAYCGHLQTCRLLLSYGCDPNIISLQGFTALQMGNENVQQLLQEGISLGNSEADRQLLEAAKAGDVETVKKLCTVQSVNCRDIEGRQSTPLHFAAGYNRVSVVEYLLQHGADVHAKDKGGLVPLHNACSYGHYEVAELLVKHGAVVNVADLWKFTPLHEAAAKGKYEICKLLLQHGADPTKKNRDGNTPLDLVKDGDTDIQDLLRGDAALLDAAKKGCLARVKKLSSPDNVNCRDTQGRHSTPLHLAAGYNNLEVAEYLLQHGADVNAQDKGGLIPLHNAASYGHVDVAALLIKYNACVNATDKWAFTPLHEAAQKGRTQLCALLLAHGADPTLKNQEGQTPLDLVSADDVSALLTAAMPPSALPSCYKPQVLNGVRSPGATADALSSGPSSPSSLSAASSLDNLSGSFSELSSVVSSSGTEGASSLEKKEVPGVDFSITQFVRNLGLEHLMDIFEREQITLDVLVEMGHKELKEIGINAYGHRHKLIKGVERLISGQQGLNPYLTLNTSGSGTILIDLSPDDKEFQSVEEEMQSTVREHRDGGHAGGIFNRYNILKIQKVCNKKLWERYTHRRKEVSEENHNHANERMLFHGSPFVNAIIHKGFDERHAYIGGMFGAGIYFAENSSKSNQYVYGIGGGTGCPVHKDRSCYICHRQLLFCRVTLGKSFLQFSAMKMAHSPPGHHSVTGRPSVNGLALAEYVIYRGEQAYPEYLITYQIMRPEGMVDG
Test: in vitro auto-ADP-ribosylation assay with recombinant GST-TNKS2, biotinylated substrate, chemiluminescent detection
Assay type: biochemical

COc1ccc(-n2c(SCCCN3C(=O)c4cccc5cccc(c45)C3=O)nnc2-c2ccncc2)cc1 [WIKI4]
pIC50: ~7.82
